Results: US20070167349A1, “Estrogen cancer therapy” (Cell Therapeutics, Inc., priority 2005, published 2007)

What was measured:
cathepsin B = test: Cathepsin B activity assay in tumor homogenate (Z-Arg-Arg-AMC); format: in vivo; settings: HT-29 tumors; increased levels of estrogen, s.c. pellets
Procedure: Cathepsin B activity assay was performed as follows: proteins were extracted by homogenization in cathepsin B buffer in ratio of 1 ml of buffer per 100 mg of tissue. The test utilized the ability of cathepsin B to digest the synthetic substrate Z-Arg-Arg-AMC. Released AMC was determined fluorometrically at excitation wavelength 390 nm and emission wave-length 460 nm. The activity of cathepsin B was quantified versus an AMC standard curve.

[1] = tested on: HT-29 human CRC xenograft tumor model; test: Effect of circulating estrogen on tumor growth; format: in vivo, female CD nu/nu mice; settings: increased levels of estrogen, s.c. controlled release pellets 0.17, 0.36, 0.72 mg/60 days
ERβ = target: T1, ERβ (Homo sapiens, UniProt Q92731); test: ERβ expression (western blot) and activation (RT-PCR of E-Cadherin, Id-2) in xenograft tumors; format: in vivo; settings: HT-29 and H460 xenograft tumors, E2 supplements
T1 construct: proteins were extracted by homogenization in RIPA buffer; from tissue; host or cells: HT-29 and H460 human xenograft tumours in female CD nu/nu mice
T1 sequence (Q92731 whole entry): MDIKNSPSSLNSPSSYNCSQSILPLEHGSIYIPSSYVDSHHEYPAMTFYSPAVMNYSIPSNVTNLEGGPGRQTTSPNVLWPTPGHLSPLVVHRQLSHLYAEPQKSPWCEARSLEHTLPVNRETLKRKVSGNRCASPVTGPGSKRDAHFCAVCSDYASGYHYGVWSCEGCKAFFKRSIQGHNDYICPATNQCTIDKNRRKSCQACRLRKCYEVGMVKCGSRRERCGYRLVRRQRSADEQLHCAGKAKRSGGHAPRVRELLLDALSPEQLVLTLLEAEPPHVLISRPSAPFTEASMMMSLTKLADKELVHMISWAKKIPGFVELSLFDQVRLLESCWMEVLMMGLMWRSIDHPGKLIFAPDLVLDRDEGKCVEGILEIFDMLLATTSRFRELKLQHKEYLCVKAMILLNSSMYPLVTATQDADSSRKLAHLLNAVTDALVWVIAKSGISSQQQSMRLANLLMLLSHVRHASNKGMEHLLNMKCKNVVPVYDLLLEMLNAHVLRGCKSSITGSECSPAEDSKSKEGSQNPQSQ
Procedure: ERα, ERβ, E-Cadherin and Id-2 gene expression was determined by RT-PCR, relating their RNA expression to that of GAPDH gene. Total RNA extracted from tumors was reversely transcribed by Thermoscript RT-PCR System (INVITROGEN). The cDNA generated was used as template for PCR with primers specific for ERα and β, E-Cadherin and Id-2.
Western blot analysis was performed as follows: proteins were extracted by homogenization in RIPA buffer and their content was determined by Bio-Rad Protein Assay. Protein aliquots were separated by size on 10% SDS-PAGE and transferred to nitrocellulose membrane. Immunodetection was performed using: anti-ERa Polyclonal Ab (HC-20, Santa Cruz Biotechnologies), […] Polyclonal Ab (06-629, Upstate Biotechnologies), anti-α-Actin (Sigma), and anti-α-Tubulin (Santa CruzBiotechnologies).
The effect of estradiol on ERβ expression in HT-29 human CRC and H460 human NSCLC was analyzed by western blot (FIGS. 9 and 10, respectively.).
The effect of estradiol on ERβ activation in HT-29 human CRC and H460 human NSCLC cells was analyzed by RT-PCR, where increased expression of the E-Cadherin gene (in HT-29 cells) and increased expression of the Id-2 gene (in H460 cells) is indicative of ERP activation (FIGS. 11 and 12, respectively.).

NSCLC [2] = test: Phase III study (STELLAR 3): CT-2103/PPX + carboplatin vs paclitaxel + carboplatin, overall survival by estrogen level; format: in vivo, human; settings: CT-2103 210 mg/m^2 + carboplatin AUC 6 vs paclitaxel 225 mg/m^2 + carboplatin AUC 6
Excerpt: The experiments and results presented in example 1 describe the correlation between estrogen levels and treatment with CT-2103 versus paclitaxel, as measured by overall survival (OS). The data depicted in FIGS. 1 and 2 were derived from a multinational, phase III, open-label study. […] Randomization was stratified to minimize potential imbalances between the 2 treatment arms. After they were selected for the study, patients were stratified by disease stage (IV vs other), gender, geographic location (US vs. Western Europe and Canada vs. rest of the world), and history of brain metastases (yes vs. no).
From the initial sample set, a subset consisting of either high or low estrogen women was analyzed. […] Estrogen levels in women were determined by a competitive immunoassay (e.g., DPC […] 2000 Analyzer, NY; DPC […] Analyzer, Ireland). […]
Patients received CT-2103/carboplatin or paclitaxel/carboplatin, by intravenous infusion, on day 1 of each 21-day cycle for a total of 6 cycles. Toxicities were evaluated at each patient visit. Hematology, clinical chemistry, and coagulation parameters were evaluated before and during the study period. […] The efficacy and safety outcomes of this study were monitored by an independent Data Monitoring Committee (DMC).
Efficacy of the treatments was determined by evaluation of tumor burden according to RECIST. […]

NSCLC [3] = test: Composite analysis of two phase III studies (STELLAR 3 and STELLAR 4): survival by sex and age, PPX vs control; format: in vivo, human; settings: for HR: PPX vs CONTROL
Procedure: Two phase III studies, enrolling a total of 781 patients with NSCLC and a poor performance status (PS2), were conducted. […] In order to study the effect of sex and estrogen on survival among the various treatment groups, the results from both phase III clinical trials were combined and a composite analysis performed.
Functional menopausal status was assigned based on age and pretreatment estradiol levels, when available. The study was a composite of results from both clinical studies.

[4] = tested on: NCI-H460 human lung carcinoma; settings: H460 tumor cells
[5] = tested on: HT-29 human CRC xenograft tumor model; settings: associated with increased cathepsin B activity (E2 supplemented)
Procedure: Antitumor activity parameters were determined as follows: • 1. Tumor weight inhibition % (TWI %) equals 100 minus (TW of treated divided by TW of control) times 100, which was evaluated at day 60 from pellet implant. • 2. Tumor growth delay (TGD): TGD equals TG Treated minus TG Control, where TG is the mean time, in days, for the tumor to reach a weight of 1 gram (g). • 3. Log cell kill (LCK) was calculated by the formula: LCK equals ((TGD 1 g) divided by 3.32) times DT, where DT is the time (days) necessary for the tumor to double in volume, in control and experimental groups.
Statistical analyses were performed using one-way ANOVA Bonferroni post test.

Compound	cathepsin B activity (cathepsin B)	tumor weight [1]	ERβ activation and/or expression (ERβ)	overall survival (OS) (NSCLC [2]; women with postmenopausal (low) estrogen levels)	overall survival (OS) (NSCLC [2]; women with premenopausal (high) estrogen levels)	OS (NSCLC [3]; FEMALE)	HR (NSCLC [3]; FEMALE)	OS (NSCLC [3]; MALE)	HR (NSCLC [3]; MALE)	OS (NSCLC [3]; women under 55 years of age, PPX vs control arm)	mechanism of uptake of intact PPX into the cellular compartment [4]	PPX antitumor activity [5]
C[C@]12CC[C@@H]3c4ccc(O)cc4CC[C@H]3[C@@H]1CC[C@@H]2O [17β estradiol, 17β Estradiol]	increases	increases	induce ERβ activation and/or expression	–	–	–	–	–	–	–	–	–
paclitaxel poliglumex [PPX]	–	–	–	no apparent effect on survival	improved outcome	285 days	0.70	220 days	1.05	prolonged	energy-dependent endocytosis, in a dose- and time-dependent manner	enhanced
